Patent US12054485B2, “Substituted imidazoquinolines” (BIONTECH SE, priority 2017, dated 2024)
Read-outs that look alike come from different tables or passages of the source.

What was measured:
Format in all cases: cell-based
Human PBMCs = experiment: IFN-α induction by TLR agonists in human PBMCs (Luminex)
Protocol: 1) IFN-α Induction Assay—IFN-α induction by TLR Agonists in Human PBMCs
Abbreviations: BSA=bovine serum albumine; PBS=phosphate buffer pH 7.4; PE=phycoerythrin; EDC=1-ethyl-3-(3-dimethylaminopropyl)carbodiimide hydrochloride.
Materials and Devices: Bio Plex 200 Luminex device, and BioPlex Manager software; MultiScreen Filter Plates (Millipore, MABVN1250); low binding reaction vials 1.5 ml (Sarstedt, 72.706.600); Activation Buffer: 0.1M Na-dihydrogen phosphate, 0.1M Di-Na hydrogen phosphate pH 6.2; Sulfo-NHS (N-hydroxysulfosuccinimide) solution: 50 mg/ml in water (freshly prepared); EDC solution: 50 mg/ml in water (freshly prepared); Coupling Buffer: PBS; Washing Buffer: PBS+0.05% Tween20; Blocking Buffer: PBS+10 mg/ml BSA+0.05% sodium azide; Assay Buffer: PBS+10 mg/ml BSA;
Other materials and devices (pipets, reaction vessels, shaker, etc.) were standard lab equipment; water was MilliQ grade quality, buffers were sterile filtered before use.
(Pre-)Incubation of Cells:
In each well of a 96-well U-bottom plate 200,000 PBMCs were pre-incubated in medium (RPMI1640-Gibco #61870-044+10% FBS+1% L-glutamine) for 5 hours at 37° C. and 5% CO2 before the compounds of the present invention or controls were added, respectively. Upon addition of compounds of the present invention or controls, the cells are incubated for another 24 h at 37° C. and 5% CO2.
Luminex assay, Step 1: Coupling of antibody to beads: • transfer a suspension (beads are stored in buffer as provided by manufacturer) of about 5 million MicroPlex Microspheres (=beads) into a low binding reaction vial • centrifuge bead suspension for 1 min at 10,000 g, discard supernatant and resuspend pellet in 160 μl Activation Buffer, repeat once • add 20 μl Sulfo-NHS solution and 20 μl EDC solution, vortex • incubate for 20 min in the absence of light • centrifuge bead suspension for 1 min at 10,000 g, discard supernatant and resuspend pellet in 500 μl Coupling Buffer, repeat once • add capture antibody (CaptureAK eBioscience #BMS160, 5 μg per 1 Mio beads) • incubate 2 h at RT in the absence of light while swaying • centrifuge bead suspension for 1 min at 10,000 g, discard supernatant and resuspend pellet in 500 μl Washing Buffer, repeat once • centrifuge bead suspension for 1 min at I0,000 g, discard supernatant and resuspend pellet in 100 μl Blocking Buffer
Luminex assay, Step 2: Measurement • add 100 μlAssay Buffer into each filter plate well (seal any unused wells with adhesive tape), then remove buffer • add about 2,000 beads per well per analyte (per analyte, a different bead type with distinct fluorescence color is used), suspended in […] of Assay Buffer • remove buffer and wash twice with 100 μl Washing Buffer per well • per well, add 50 μl sample solution from the (pre-)incubation step (cell supernatant), or Standard (IFN-α standard eBioscience #BMS216MST—concentration gradient, highest standard concentration 2500 pg/ml) or Assay Buffer (as blanks) • shake plate • incubate plate for 2 h at RT in the absence of light, while swaying the plate • wash three times with 100 μl Washing Buffer per well • add 25 μl antibody detection mix (DetectionAK eBioscience #BMS1016BT diluted 1:1000) in Assay Buffer per well, then vortex plate • incubate plate for 1 h at RT in the absence of light, while swaying the plate • wash three times with 100 μl Washing Buffer per well • add 50 μl Streptavidin/PE (diluted 1:200 in Assay Buffer) per well, then vortex plate • incubate plate for 10 min at RT in the absence of light, while swaying the plate • wash three times with 100 μl Washing Buffer per well • add 100 μl Assay Buffer per well, then vortex plate • start Luminex measurement according to manufacturer's instructions, measuring at least 50 beads per well per analyte
The compounds were tested at 8 different concentrations (1 μM, 0.3 μM, 0.1 μM, 0.03 μM, 0.01 μM 0.003 μM, 0.001 μM, 0.0003 μM) using a half-logarithmic dilution. […]

human TLR8 = molecular target: T1, human TLR8 (Homo sapiens, UniProt Q9NR97); experiment: TLR8 reporter gene assay (HEK-Blue-hTLR8, NFkB/AP-1 inducible SEAP)
T1 construct: host or cells: HEK-Blue-hTLR8
T1 sequence (Q9NR97 27-1041): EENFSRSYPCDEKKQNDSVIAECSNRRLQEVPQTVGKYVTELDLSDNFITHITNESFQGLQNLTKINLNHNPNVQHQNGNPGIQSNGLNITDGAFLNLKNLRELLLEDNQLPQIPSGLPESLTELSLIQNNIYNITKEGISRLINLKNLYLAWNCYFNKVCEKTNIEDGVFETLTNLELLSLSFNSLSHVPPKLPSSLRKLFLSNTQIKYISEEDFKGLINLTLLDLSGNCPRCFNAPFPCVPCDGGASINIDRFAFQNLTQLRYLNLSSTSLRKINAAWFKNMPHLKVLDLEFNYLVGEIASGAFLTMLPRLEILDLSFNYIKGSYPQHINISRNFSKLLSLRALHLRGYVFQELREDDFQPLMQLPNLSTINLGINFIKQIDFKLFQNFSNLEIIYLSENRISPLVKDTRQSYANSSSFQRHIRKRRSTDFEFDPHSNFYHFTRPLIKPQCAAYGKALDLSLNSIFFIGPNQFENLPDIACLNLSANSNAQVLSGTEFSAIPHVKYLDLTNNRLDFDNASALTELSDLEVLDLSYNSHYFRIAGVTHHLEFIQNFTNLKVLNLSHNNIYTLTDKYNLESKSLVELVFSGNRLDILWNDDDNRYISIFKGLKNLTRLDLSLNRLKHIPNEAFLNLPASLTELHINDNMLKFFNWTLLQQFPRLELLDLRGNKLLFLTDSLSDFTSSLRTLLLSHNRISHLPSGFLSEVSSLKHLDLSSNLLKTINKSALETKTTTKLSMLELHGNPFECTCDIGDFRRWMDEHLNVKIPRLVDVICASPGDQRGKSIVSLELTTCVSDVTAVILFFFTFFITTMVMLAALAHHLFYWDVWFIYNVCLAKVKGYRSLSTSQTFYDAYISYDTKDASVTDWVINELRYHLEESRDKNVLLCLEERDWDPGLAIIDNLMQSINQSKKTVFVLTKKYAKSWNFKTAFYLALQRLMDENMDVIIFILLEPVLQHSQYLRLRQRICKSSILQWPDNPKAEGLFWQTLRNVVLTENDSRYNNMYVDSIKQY
Protocol: (§1) 2) TLR Stimulation Assay:
(§2) Compounds are tested for stimulation of human TLR7 and TLR8, respectively, via reporter gene expression analyzed in a cell line stably transfected with human TLR7 and TLR8, respectively, and coexpressing an NFkB/AP-1 inducible SEAP reporter gene. Stimulation with a TLR ligand leads to NFkB/AP-1 activation and upregulation and secretion of SEAP, which can be measured in the supernatant with QuantiBlue™ detection system (InvivoGen).
Cell lines used were either HEK-Blue-hTLR7 (InvivoGen #hkb-htlr7) or HEK-Blue-hTLR8 (InvivoGen #hkb-htlr8). Cells were cultured following manufacturer's instructions. […]

human TLR7 = molecular target: T2, human TLR7 (Homo sapiens, UniProt Q9NYK1); experiment: TLR7 reporter gene assay (HEK-Blue-hTLR7, NFkB/AP-1 inducible SEAP); conditions: for EC50: HEK-Blue-hTLR7
T2 construct: host or cells: HEK-Blue-hTLR7
T2 sequence (Q9NYK1 27-1049): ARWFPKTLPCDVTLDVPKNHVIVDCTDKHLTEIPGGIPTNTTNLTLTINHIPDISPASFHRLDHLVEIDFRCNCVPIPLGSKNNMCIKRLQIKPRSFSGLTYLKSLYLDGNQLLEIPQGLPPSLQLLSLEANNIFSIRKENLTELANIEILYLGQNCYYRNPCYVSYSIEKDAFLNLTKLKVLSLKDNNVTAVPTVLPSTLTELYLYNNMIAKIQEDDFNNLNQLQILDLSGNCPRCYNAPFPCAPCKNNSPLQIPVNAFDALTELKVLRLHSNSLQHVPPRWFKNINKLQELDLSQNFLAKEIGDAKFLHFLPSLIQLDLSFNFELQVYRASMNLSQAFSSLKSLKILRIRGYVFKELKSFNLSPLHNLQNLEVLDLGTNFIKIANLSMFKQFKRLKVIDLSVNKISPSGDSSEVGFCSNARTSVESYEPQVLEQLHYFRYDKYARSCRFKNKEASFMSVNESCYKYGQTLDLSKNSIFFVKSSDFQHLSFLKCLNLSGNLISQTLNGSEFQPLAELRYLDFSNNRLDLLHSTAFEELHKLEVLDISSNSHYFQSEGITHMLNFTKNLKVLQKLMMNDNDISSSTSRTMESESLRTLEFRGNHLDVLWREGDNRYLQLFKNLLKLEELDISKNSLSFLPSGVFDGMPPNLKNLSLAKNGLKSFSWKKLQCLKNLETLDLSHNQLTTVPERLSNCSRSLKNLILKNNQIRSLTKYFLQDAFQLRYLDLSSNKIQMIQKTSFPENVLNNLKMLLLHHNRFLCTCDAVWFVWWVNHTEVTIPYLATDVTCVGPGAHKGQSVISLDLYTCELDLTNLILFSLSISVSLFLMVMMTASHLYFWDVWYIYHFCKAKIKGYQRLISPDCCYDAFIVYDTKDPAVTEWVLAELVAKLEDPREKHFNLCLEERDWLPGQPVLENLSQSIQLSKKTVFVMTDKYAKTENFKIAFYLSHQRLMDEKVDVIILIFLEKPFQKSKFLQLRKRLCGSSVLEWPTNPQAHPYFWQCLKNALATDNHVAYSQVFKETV
Protocol: as §1, §2
Cell lines used were either HEK-Blue-hTLR7 (InvivoGen #hkb-htlr7) or HEK-Blue-hTLR8 (InvivoGen #hkb-htlr8). Cells were cultured following manufacturer's instructions.
Assay: • prepare cell suspensions of each cell line with Nv=0.11×10^6 cells/ml in medium (DMEM 4.5 g/l Glucose, 2-4 mM L-glutamine+10% FBS) without antibiotics (Nv=number of living cells) • add 180 μl of the suspensions per well of a 96 well flat bottom cell culture plates (coster, #3506) • incubate the plates overnight at 37° C. and 5% CO2 • prepare samples and controls as solutions in DMSO: R848, CL075 (TLR 7/8 agonist by InvivoGen) and Guardiquimod each to a final concentration of 10 μM, ODN2006 (InvivoGen) and ODN2216 (InvivoGen) each to a final concentration 2 μM; • compounds of the invention are applied in dilution series to final concentrations of 30, 10, 3, 1, etc. μM • add 20 μl diluted compounds and controls (see above) to the wells • incubate plates for 20-24 h at 37° C. and 5% CO2 • prepare QuantiBlue™ (InvivoGen #10H19-MM) solution, following manufacturer's instructions: solubilize the powder of one pouch in 100 ml MilliQ grade water, heat at 37° C. in a water bath for about 30 min, filter the solution with a paper filter • add 100 μl prepared QuantiBlue™ solution in each well of a 96 well plate with flat bottom • add […] cell culture supernatant from the induced cells per well • incubate plates for 1 to 1.5 h at 37° C. (until an intense blue color has developed) • read OD at 620 nm with a plate reader • calculate EC50 from data points

[1] = comparative compounds with 2-methyltetrahydrofuran-3-yl at R3, Table 2
[2] = 24 h incubation, maximum of bell-shaped curve over 0.0003-1 μM, Table 1

SMILES | Maximum IFN-α release (Human PBMCs; [1]) [pg/mL] | Maximum IFN-α release (Human PBMCs; [2]) [pg/mL] | also measured
CCc1nc2c(N)nc3ccccc3c2n1CCCCN(C(C)=O)C1CCOC1C (centres unmarked) [1′] | 930 |  | 
CCc1nc2c(N)nc3ccccc3c2n1CCCCN(C(N)=O)C1CCOCC1 [Example 2, 1-(4-(4-Amino-2-ethyl-1H-imidazo[4,5-c]quinolin-1-yl)butyl)-1-(tetrabydro-2H-pyran-4-yl)urea] |  | 1250 | 
COCCc1nc2c(N)nc3ccccc3c2n1CCCCN(C(C)=O)C1CCOC1C (centres unmarked) [5′] | 330 |  | 
CCNCc1nc2c(N)nc3ccccc3c2n1CCCCN(C(C)=O)C1CCOCC1 [Example 3, N-(4-(4-Amino-2-((ethylamino)methyl)-1H-imidazo[4,5-c]quinolin-1-yl)butyl)-N-(tetrahydro-2H-pyran-4-yl)acetamide] |  | 1070 | 
COCCc1nc2c(N)nc3ccccc3c2n1CCCCN(C(C)=O)C1CCOCC1 [Example 5, N-(4-(4-Amino-2-(2-methoxyethyl)-1H-imidazo[4,5-c]quinolin-1-yl)butyl)-N-(tetrahydro-2H-pyran-4-yl)acetamide] |  | 880 | 
CCNCc1nc2c(N)nc3ccccc3c2n1CCCCN(C(N)=O)C1CCOC1C (centres unmarked) [4′] | 290 |  | 
COCCc1nc2c(N)nc3ccccc3c2n1CCCCN(C(N)=O)C1CCOCC1 [Example 6, 1-(4-(4-Amino-2-(2-methoxyethyl)-1H-imidazo[4,5-c]quinolin-1-yl)butyl)-1-(tetrahydro-2H-pyran-4-yl)urea] |  | 1850 | 
CCNCc1nc2c(N)nc3ccccc3c2n1CCCCN(C(C)=O)C1CCOC1C (centres unmarked) [3′] | 360 |  | 
CCc1nc2c(N)nc3ccccc3c2n1CCCCNC1CCOCC1 [example V, 2-ethyl-1-(4-((tetrahydro-2H-pyran-4-yl)amino)butyl)-1H-imidazo[4,5-c]quinolin-4-amine] |  |  | activity towards TLR8 in the TLR8 reporter gene assay (human TLR8): displayed activity; EC50 (human TLR7; highest concentration without any activity, read-out: activity towards TLR7 (no activity up to a concentration of)): > 30000 nM
CCNCc1nc2c(N)nc3ccccc3c2n1CCCCN(C(N)=O)C1CCOCC1 [Example 4, 1-(4-(4-Amino-2-((ethylamino)methyl)-1H-imidazo[4,5-c]quinolin-1-yl)butyl)-1-(tetrahydro-2H-pyran-4-yl)urea] |  | 920 | 
CCc1nc2c(N)nc3ccccc3c2n1CCCCN(C(C)=O)C1CCOC1C (centres unmarked) [example III, 3-{acetyl[4-(4-amino-2-ethyl-1H-imidazo[4,5-c]quinolin-1-yl)butyl]amino}-2,5-anhydro-1,3,4-trideoxypentitol] |  |  | EC50 (human TLR7; read-out: EC50 in the TLR7 reporter gene assay): 440 nM; EC50 in TLR7 reporter gene assay relative to Example 1 (human TLR7; fold higher EC50 than Example 1): ten-fold higher; maximum IFN-α release relative to present Example 1 (Human PBMCs; % of the maximum IFN-α release of Example 1): about 50%
